In patent US6939864B1, “Animal feed compositions and methods of using the same” (Purdue Research Foundation, priority 2001, dated 2005):

Assays:
[1] = test system: serum cortisol (CS), ACTH and tumor necrosis factor-alpha (TNF); assay: Porcine study: serum ACTH, cortisol and TNF, basal and after I.V. LPS challenge; assay type: in vivo, pigs; details: I.V. LPS 150 ug/kg, day 14 postweaning
Description: The objective of this study was to evaluate the potential benefit of supplementing the neonatal pig with Vitamin C (VC) and/or Beta-glucan (BG). Thirty-two crossbred pigs were selected at birth and assigned to one of four dietary treatment groups (n=8/group). Beginning on the day of birth, pigs received their respective treatments via an oral gavage on a daily basis until weaning at 2 weeks of age. Dietary treatment groups included Control (Con; no VC or BG), VC (75 ppm), BG (0.312 g/kg body weight) and VC+BG (75 ppm and 0.312 g/kg body weight). After weaning, pigs were placed on a starter ration containing their respective dietary treatments and a Phase 1 diet specific for the University of Missouri Swine unit for a 2 week period. Body weights were recorded every 3 days to adjust dietary treatment doses. On day 14 postweaning, blood samples were collected at 30-min intervals for one hour followed by an I.V. injection of lipopolysaccharide (LPS; 150 ug/kg). LPS is part of bacterial cell walls that initiates the immune response. Blood samples were collected at 30-min intervals for an additional 3-hour period following the LPS challenge. Blood samples were analyzed for serum cortisol (CS), ACTH and tumor necrosis factor-alpha (TNF) which are indicators of acute stress response to challenge (LPS).

[2] = Calf study: body weight change and fecal scores; assay type: in vivo, calves; details: mean ±SE
Protocol: Three days after they were born, calves were started on all milk, milk replacer. The calves were assigned randomly to one of four treatment groups control, β-glucan, Vitamin C, and β-glucan and Vitamin C. Each treatment is represented in a block (1 block has 4 calves and each room has 3 blocks). Initial weight and temperature were taken when calves were placed on study, then weekly for six more weeks.
Fecal scores, nasal and ocular discharges were recorded daily along with room temperature and humidity. Blood samples were taken every week for seven weeks; 10 ml heparinized tube for plasma to measure cortisol and ascorbic acid; 5 ml sodium citrate tube for hematocrits, granulocytes, lymphocytes and fibrinogen.
Calves were fed milk replacer equaling 10% of their body weight per day, which was given in two equal rations (morning and afternoon). Dry milk replacer was equal to 12.5% of amount fed. Calves on treatment […] were given β-glucan equaling 0.3125% of total intake. Calves on treatment 3 and 4 received 250 mg of Vitamin C twice a day.

| Compound | TNF response to the LPS challenge [1] | CS response to the LPS challenge ([1]; compared to Con group) | Mean BW change ([2]; dairy calves on milk replacer) [kg/wk] | mean fecal scores ([2]; scale of 1–4, 1=solid and 4=fluid) |
| --- | --- | --- | --- | --- |
| O=C1O[C@H]([C@@H](O)CO)C(O)=C1O [VC, ascorbic acid] | more rapid decline in serum TNF | lower | – | – |
| ascorbyl-2-polyphosphonate [AA] | – | – | 1.48±0.12 | 1.48±0.03 |
